One series deals with T1, M1 muscarinic receptors (Homo sapiens, UniProt P11229).
T1 construct: expressed in transfected cells; host or cells: A9 L cells
T1 sequence (P11229 1-460): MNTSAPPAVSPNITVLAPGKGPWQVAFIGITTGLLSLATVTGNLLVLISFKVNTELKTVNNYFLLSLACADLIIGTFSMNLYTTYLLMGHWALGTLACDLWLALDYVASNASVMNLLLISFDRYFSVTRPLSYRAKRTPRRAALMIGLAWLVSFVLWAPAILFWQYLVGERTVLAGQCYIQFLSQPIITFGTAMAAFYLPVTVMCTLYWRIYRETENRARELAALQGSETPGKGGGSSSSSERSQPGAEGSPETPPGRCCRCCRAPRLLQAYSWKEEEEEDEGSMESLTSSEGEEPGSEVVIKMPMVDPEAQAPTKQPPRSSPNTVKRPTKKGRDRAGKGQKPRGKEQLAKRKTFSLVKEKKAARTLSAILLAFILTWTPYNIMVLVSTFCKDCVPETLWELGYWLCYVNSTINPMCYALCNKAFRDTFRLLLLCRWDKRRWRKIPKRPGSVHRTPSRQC
The experiment in a line: Muscarinic receptor binding at M1 receptors. Conditions: for affinity for muscarinic receptors: as compared to the parent compound xanomeline; for Ki: Table 3. From the text: (§1) The compounds of Formula III incorporate hydrogen bonding elements as ester isosteres (i.e., alcohols, […], 1,2,5-thiadiazoles) at the end of an alkyl or alkyloxy linking group as shown below. The compounds lack a second tetrahydropyridine moiety.

For series [1], the target named is T2, M1 muscarinic receptors expressed in A9 L cells (Homo sapiens, UniProt P11229).
T2 construct: expressed in transfected cells; host or cells: A9 L cells
T2 sequence (P11229 1-460): T1 sequence (P11229 1-460)
Description: Phosphoinositide (PI) metabolism at M1 muscarinic receptors expressed in A9 L cells. The conditions noted are these: for EC50 / Phosphoinositide metabolism Smax: A9 L cells, Table 3. The series is classed as cell-based.
Text: as §1

Molecules are shown by their SMILES. Counter-ions that a name gives are not always drawn.

For the compound `CN1CCC=C(c2nsnc2OCCCCCCCCCCCCOc2nsnc2C2=CCCN(C)C2)C1` [(CH2)12, 1,12-bis-[3-(1-methyl-1,2,5,6-tetrahydropyrid-3-yl)-1,2,5-thiadiazol-4-yloxy]-dodecane], the “affinity for muscarinic receptors” value on M1 muscarinic receptors is listed as “very high affinity”. For the compound `CN1CCC=C(c2nsnc2OCCCCCCCCCCCCO)C1` [CDD-0297-A, 12-[3-(1-Methyl-1,2,5,6-tetrahydropyrid-3-yl)-1,2,5-thiadiazol-4-yloxy]-1-dodecanolhydrochloride], at M1 muscarinic receptors, the Ki turned out to be 16 ± 3.1 nM. Also, in series [1], the EC50 was 2600 nM and the “Phosphoinositide metabolism Smax” value amounted to 250 ± 28%.

For `COc1nsnc1OCCOCCOCCOCCOc1nsnc1C1=CCCN(C)C1` [CDD-0304-A, Tetra(ethyleneglycol)(4-methoxy-1,2,5-thiadiazol-3-yl)[3-(1-methyl-1,2,5,6-tetrahydropyrid-3-yl)-1,2,5-thiazdiazol-4-yl] ether hydrochloride], the Ki at M1 muscarinic receptors worked out at 38 ± 23 nM. In series [1], the EC50 is 64 nM and the “Phosphoinositide metabolism Smax” value came to 600 ± 56%.

`CCOCCOCCOCCOCCOc1nsnc1C1=CCCN(C)C1` (as salt: hydrochloride) [CDD-0301-A, Tetra(ethylene glycol) ethyl [3-1-methyl-1,2,5,6-tetrahydropyrid-3-yl)-1,2,5-thiadiazol-4-yl] ether hydrochloride] yielded a melting point of 64.5 to 66 °C.

`CN1CCC=C(c2nsnc2OCCCCCCCCCCCCO)C1` (as salt: hydrochloride) [CDD-0297-A, 12-[3-(1-Methyl-1,2,5,6-tetrahydropyrid-3-yl)-1,2,5-thiadiazol-4-yloxy]-1-dodecanolhydrochloride] came in with a melting point of 97 to 98 °C.

`CN1CCC=C(c2nsnc2OCCOCCOCCOCCOc2nsnc2C2=CCCN(C)C2)C1` [(CH2CH2)4O3, 2,2′-bis-{[3-(1-methyl-1,2,5,6-tetrahydropyrid-3-yl)-1,2,5-thiadiazol-4-yloxy]ethyloxy}-diethyl ether]: the “affinity for muscarinic receptors” value on M1 muscarinic receptors is “very high affinity”. The same compound came in with an Smax in series [1] (PI metabolism, full dose-response curves, Table 2) of 250 ± 36%. `CN1CCC=C(c2nsnc2OCCOCCOCCOCCO)C1` [CDD-0300-A, Tetra(ethylene glycol) mono[3-(1-methyl-1,2,5,6-tetrahydropyrid-3-yl)-1,2,5-thiadiazol-4-yl] ether hydrochloride] had a Ki on M1 muscarinic receptors of 150 ± 42 nM. In series [1], the EC50 is 710 nM and the “Phosphoinositide metabolism Smax” value is given as 240 ± 64%. `CC(=O)OCCCCCCCCCCCCOc1nsnc1C1=CCCN(C)C1` (as salt: hydrochloride) [CDD-0299-A, 12-[3-(1-Methyl-1,2,5,6-tetrahydropyrid-3-yl)-1,2,5-thiadiazol-4-yloxy]-1-dodecyl acetate hydrochloride] registered a melting point of 85 to 86 °C. `CC(=O)OCCOCCOCCOCCOc1nsnc1C1=CCCN(C)C1` [CDD-0303-A, Tetra(ethylene glycol) [3-(1-methyl-1,2,5,6-tetrahydropyrid-3-yl)-1,2,5-thiadiazol-4-yl] ether acetate hydrochloride] displayed a Ki on M1 muscarinic receptors of 280 ± 130 nM. Compound `CCOCCOCCOCCOCCOc1nsnc1C1=CCCN(C)C1` [CDD-0301-A, Tetra(ethylene glycol) ethyl [3-1-methyl-1,2,5,6-tetrahydropyrid-3-yl)-1,2,5-thiadiazol-4-yl] ether hydrochloride] gave a Ki at M1 muscarinic receptors of 570 ± 220 nM. In series [1], the EC50 is 29000 nM and the “Phosphoinositide metabolism Smax” value is 420 ± 220%.

`CC(=O)OCCCCCCCCCCCCOc1nsnc1C1=CCCN(C)C1` [CDD-0299-A, 12-[3-(1-Methyl-1,2,5,6-tetrahydropyrid-3-yl)-1,2,5-thiadiazol-4-yloxy]-1-dodecyl acetate hydrochloride] displayed a Ki at M1 muscarinic receptors of 16 ± 13 nM. Further, in series [1], a half-maximal effect (EC50) was put at 3400 nM and the “Phosphoinositide metabolism Smax” value is recorded as 280 ± 17%.

`CC(=O)OCCOCCOCCOCCOc1nsnc1C1=CCCN(C)C1` (as salt: hydrochloride) [CDD-0303-A, Tetra(ethylene glycol) [3-(1-methyl-1,2,5,6-tetrahydropyrid-3-yl)-1,2,5-thiadiazol-4-yl] ether acetate hydrochloride] registered a melting point of 55 to 55.5 °C.

As usually defined, the Ki is the dissociation constant of the complex between target and ligand, obtained from inhibition or displacement. Low values mean a stronger hold on the target, high ones a looser hold on the target. The term EC50 denotes the concentration that produces a half-maximal response. Read a low EC50 as greater potency. The term melting point denotes the temperature, or range, at which the solid turns liquid.

These data come from US6376675B2, “Muscarinic receptor agonists” (The University of Toledo, priority 1999, dated 2002).
